Reference: patent publication US7897765B2, “Therapeutic compounds and uses thereof” (Elixir Pharmaceuticals, Inc., priority 2003, dated 2011)

Target: GHS-R (Homo sapiens, UniProt Q92847)
Test: cell based assay of GHS-R antagonist/agonist activity
Details: GHS-R antagonist Ki and/or agonist EC50 class
Experimental: Cell-Based Activity Assays. For example, the ability of the compound to modulate accumulation of a second messenger signaling component downstream of GHS-R can be evaluated. For example, inositol phosphates (IP), as a result of Gq signaling in a mammalian cell, e.g., a Cos-7 cells. Other tissue culture cells, Xenopus oocytes, and primary cells can also be used.
Phosphatidylinositol turnover assay. One day after transfection COS-7 cells are incubated for 24 hours with 5 μCi of [^3H]-myo-inositol in 1 ml medium supplemented with 10% fetal calf serum, 2 mM glutamine and 0.01 mg/ml gentamicin per well. Cells are then washed twice in buffer, 20 mM HEPES, pH 7.4, supplemented with 140 mM NaCl, 5 mM KCl, 1 mM MgSO4, 1 mM CaCl2, mM glucose, 0.05% (w/v) bovine serum; and incubated in 0.5 ml buffer supplemented with 10 mM LiCl at 37° C. for 30 min. For some assays, it is also useful to incubate the cells with adenosine deaminase ADA (200 U/mg, Boehringer Mannheim, Germany) for 30 min in a concentration of 1 U/ml.
After incubation with the compound of interest for 45 min at 37° C., cells are extracted with 10% ice-cold perchloric acid and placed on ice for 30 min. The resulting supernatants are neutralized with KOH in HEPES buffer, and [^3H]-inositol phosphate is purified on Bio-Rad AG 1-X8 anion exchange resin as described. Assays can be run in duplicate, triplicate, etc.
Other second messenger assays. Another second messenger that can be evaluated is Ca^2+. Ca^2+ mobilization can be evaluated using a calcium sensitive detector, such as aequorin protein or a dye, e.g., FURA-2. In an exemplary assay, calcium mobilization is evaluated in a recombinant cell that expresses GHS-R and aequorin.
Gene expression assay. HEK293 cells (30 000 cells/well) seeded in 96-well plates are transiently transfected with a mixture of pFA2-CREB and pFR-Luc reporter plasmid (PathDetect™ CREB trans-Reporting System, Stratagene) and nucleic acid encoding GHS. One day after transfection, cells are treated with the compound of interest in an assay volume of 100 μl medium for 5 hrs. After treatment, cells are cultured in low serum (2.5%). After the incubation period, the assay is ended by washing the cells twice with PBS and adding 100 μl luciferase assay reagent (LucLite™, Packard Bioscience). Luminescence is measured (e.g., as relative light units (RLU)) using in a luminometer such as the TopCounter™ (Packard Bioscience) for 5 sec.
IC50 and EC50 values can be determined by nonlinear regression, e.g., using the Prism 3.0 software (GraphPad Software, San Diego).

GHS-R, sequence (Q92847 whole entry, species assumed): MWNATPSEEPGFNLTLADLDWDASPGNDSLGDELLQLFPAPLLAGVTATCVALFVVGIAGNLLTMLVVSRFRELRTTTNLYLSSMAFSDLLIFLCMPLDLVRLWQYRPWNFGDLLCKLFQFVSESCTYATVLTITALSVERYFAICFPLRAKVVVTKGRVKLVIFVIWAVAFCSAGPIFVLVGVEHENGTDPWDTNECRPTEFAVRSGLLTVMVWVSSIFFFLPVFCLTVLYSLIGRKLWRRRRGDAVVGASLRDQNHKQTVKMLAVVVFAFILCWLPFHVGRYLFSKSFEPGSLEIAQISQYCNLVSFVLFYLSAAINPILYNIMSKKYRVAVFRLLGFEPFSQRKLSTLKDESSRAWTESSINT

Structure (SMILES) | Activity
CCN1CCC=C(C(=O)N[C@H](COCc2ccccc2)C(=O)N2CCC3(CC2)CN(S(C)(=O)=O)c2ccccc23)C1.Cl [Compound 2] | D (D refers to a compound having antagonist activity with Ki, <100 nM and agonist activity with EC50<100 nM in a cell-based assay)
CN1CCC(C(=O)N[C@H](COCc2ccccc2)C(=O)N2CCC3(C=Cc4ccccc43)CC2)CC1 [Compound 3] | A (A refers to a compound having antagonist activity with Ki<100 nM in a cell based assay)
CS(=O)(=O)N1CC2(CCN(C(=O)[C@@H](COCc3ccccc3)NC(=O)C3CCCNC3)CC2)c2ccccc21 (stereo partly drawn) [Compound 4] | D (D refers to a compound having antagonist activity with Ki, <100 nM and agonist activity with EC50<100 nM in a cell-based assay)
CN(C)C[C@H]1CCC[C@@H](CNC(=O)[C@@H](Cc2c[nH]c3ccccc23)NC(=O)N2CCC3(C=Cc4ccccc43)CC2)C1 [Compound 5] | A (A refers to a compound having antagonist activity with Ki<100 nM in a cell based assay)
CN(C)Cc1cccc(C(=O)N[C@H](COCc2ccccc2)C(=O)N2CCC3(CC2)CN(S(C)(=O)=O)c2ccccc23)c1 [Compound 6] | A (A refers to a compound having antagonist activity with Ki<100 nM in a cell based assay)
CN1CCC=C(C(=O)N[C@H](COCc2ccccc2)C(=O)N2CCC3(CC2)CN(S(C)(=O)=O)c2ccccc23)C1 [Compound 7] | D (D refers to a compound having antagonist activity with Ki, <100 nM and agonist activity with EC50<100 nM in a cell-based assay)
CCN(CC)CCS(=O)(=O)N[C@H](COCc1ccccc1)C(=O)N1CCC2(CC1)CN(S(C)(=O)=O)c1ccccc12 [Compound 8] | D (D refers to a compound having antagonist activity with Ki, <100 nM and agonist activity with EC50<100 nM in a cell-based assay)
CC(C)(C)OC(=O)N[C@H](COCc1ccccc1)C(=O)N1CCC2(CC1)CN(S(C)(=O)=O)c1ccccc12 [Compound 9] | A (A refers to a compound having antagonist activity with Ki<100 nM in a cell based assay)
CN(C)C[C@H]1CCC[C@@H](C(=O)N[C@H](COCc2ccccc2)C(=O)N2CCC3(CC2)CN(S(C)(=O)=O)c2ccccc23)C1 [Compound 10] | D (D refers to a compound having antagonist activity with Ki, <100 nM and agonist activity with EC50<100 nM in a cell-based assay)
CN1CC=C[C@H]1C(=O)N[C@H](COCc1ccccc1)C(=O)N1CCC2(CC1)CN(S(C)(=O)=O)c1ccccc12 [Compound 11] | A (A refers to a compound having antagonist activity with Ki<100 nM in a cell based assay)
CC(C)N1CCC=C(C(=O)N[C@H](COCc2ccccc2)C(=O)N2CCC3(CC2)CN(S(C)(=O)=O)c2ccccc23)C1 [Compound 12] | A (A refers to a compound having antagonist activity with Ki<100 nM in a cell based assay)
CN1CCCC(C(=O)N[C@H](COCc2ccccc2)C(=O)N2CCC3(CC2)CN(S(C)(=O)=O)c2ccccc23)C1 (stereo partly drawn) [Compound 13] | A (A refers to a compound having antagonist activity with Ki<100 nM in a cell based assay)
C[C@H](C(=O)N[C@H](COCc1ccccc1)C(=O)N1CCC2(CC1)CN(S(C)(=O)=O)c1ccccc12)N(C)C [Compound 14] | A (A refers to a compound having antagonist activity with Ki<100 nM in a cell based assay)
CCN(C)CCC(=O)N[C@H](COCc1ccccc1)C(=O)N1CCC2(CC1)CN(S(C)(=O)=O)c1ccccc12 [Compound 15] | C (C refers to a compound having antagonist activity of Ki>100 nM and <1500 nM in a cell based assay)
CS(=O)(=O)N1CC2(CCN(C(=O)[C@@H](COCc3ccccc3)NC(=O)C3=CCNCC3)CC2)c2ccccc21 [Compound 16] | C (C refers to a compound having antagonist activity of Ki>100 nM and <1500 nM in a cell based assay)
CC(C)(C)NC(=O)N[C@H](COCc1ccccc1)C(=O)N1CCC2(CC1)CN(S(C)(=O)=O)c1ccccc12 [Compound 17] | C (C refers to a compound having antagonist activity of Ki>100 nM and <1500 nM in a cell based assay)
CS(=O)(=O)N1CC2(CCN(C(=O)[C@@H](COCc3ccccc3)NC(=O)[C@@H]3C=CCN3)CC2)c2ccccc21 [Compound 18] | C (C refers to a compound having antagonist activity of Ki>100 nM and <1500 nM in a cell based assay)

Structure (SMILES) | Activity
CC(C)N1CCC(C(=O)N[C@H](COCc2ccccc2)C(=O)N2CCC3(CC2)CN(S(C)(=O)=O)c2ccccc23)CC1 [Compound 19] | C (C refers to a compound having antagonist activity of Ki>100 nM and <1500 nM in a cell based assay)
CN(C)CC(=O)N[C@H](COCc1ccccc1)C(=O)N1CCC2(CC1)CN(S(C)(=O)=O)c1ccccc12 [Compound 20] | C (C refers to a compound having antagonist activity of Ki>100 nM and <1500 nM in a cell based assay)
CC(C)N(C)CCS(=O)(=O)N[C@H](COCc1ccccc1)C(=O)N1CCC2(CC1)CN(S(C)(=O)=O)c1ccccc12 [Compound 21] | C (C refers to a compound having antagonist activity of Ki>100 nM and <1500 nM in a cell based assay)
CN1CCC(CN(C)[C@H](COCc2ccccc2)C(=O)N2CCC3(CC2)CN(S(C)(=O)=O)c2ccccc23)CC1.Cl.Cl [Compound 22] | C (C refers to a compound having antagonist activity of Ki>100 nM and <1500 nM in a cell based assay)
CS(=O)(=O)N1CC2(CCN(C(=O)[C@@H](COCc3ccccc3)NC(=O)C[C@@H]3CCCN3)CC2)c2ccccc21 [Compound 23] | C (C refers to a compound having antagonist activity of Ki>100 nM and <1500 nM in a cell based assay)
CN1CCC[C@H]1C(=O)N[C@H](COCc1ccccc1)C(=O)N1CCC2(CC1)CN(S(C)(=O)=O)c1ccccc12 [Compound 24] | C (C refers to a compound having antagonist activity of Ki>100 nM and <1500 nM in a cell based assay)
CN(C)CC(=O)N[C@H](COCc1ccccc1)C(=O)N1CCC2(CC1)CN(S(=O)(=O)Cc1ccccc1)c1ccccc12 [Compound 26] | C (C refers to a compound having antagonist activity of Ki>100 nM and <1500 nM in a cell based assay)
CCN1CCC(C(=O)N[C@H](COCc2ccccc2)C(=O)N2CCC3(CC2)CN(S(C)(=O)=O)c2ccccc23)CC1 [Compound 27] | C (C refers to a compound having antagonist activity of Ki>100 nM and <1500 nM in a cell based assay)
CS(=O)(=O)N1CC2(CCN(C(=O)[C@@H](COCc3ccccc3)NS(=O)(=O)CCN3CCCC3)CC2)c2ccccc21.Cl [Compound 28] | C (C refers to a compound having antagonist activity of Ki>100 nM and <1500 nM in a cell based assay)
CN(C)CC(=O)N[C@H](COCc1ccccc1)C(=O)N1CCC2(C=Cc3ccccc32)CC1 [Compound 29] | C (C refers to a compound having antagonist activity of Ki>100 nM and <1500 nM in a cell based assay)
CC(C)(C)OC(=O)N[C@H](COCc1ccccc1)C(=O)N1CCC2(C=Cc3ccccc32)CC1 [Compound 30] | C (C refers to a compound having antagonist activity of Ki>100 nM and <1500 nM in a cell based assay)
COCC(=O)N[C@H](COCc1ccccc1)C(=O)N1CCC2(CC1)CN(S(C)(=O)=O)c1ccccc12 [Compound 31] | C (C refers to a compound having antagonist activity of Ki>100 nM and <1500 nM in a cell based assay)
CN1CCC[C@@H]1C(=O)N[C@H](COCc1ccccc1)C(=O)N1CCC2(CC1)CN(S(C)(=O)=O)c1ccccc12 [Compound 32] | C (C refers to a compound having antagonist activity of Ki>100 nM and <1500 nM in a cell based assay)
COCCN1CCC(C(=O)N[C@H](COCc2ccccc2)C(=O)N2CCC3(CC2)CN(S(C)(=O)=O)c2ccccc23)CC1 [Compound 33] | C (C refers to a compound having antagonist activity of Ki>100 nM and <1500 nM in a cell based assay)
CC(=O)OCC(=O)N[C@H](COCc1ccccc1)C(=O)N1CCC2(CC1)CN(S(C)(=O)=O)c1ccccc12 [Compound 34] | C (C refers to a compound having antagonist activity of Ki>100 nM and <1500 nM in a cell based assay)
CCN(C)CCS(=O)(=O)N[C@H](COCc1ccccc1)C(=O)N1CCC2(CC1)CN(S(C)(=O)=O)c1ccccc12 [Compound 35] | C (C refers to a compound having antagonist activity of Ki>100 nM and <1500 nM in a cell based assay)
